Structures are written as SMILES. Structures can show the parent of a compound that is named as a salt.

A short description of the first data set: in vitro. The following applies: rat, gh3-tre-luc cells, AC50 (uM) modified / 1000.
With `CCN(CC)c1ccc(C(=O)c2ccccc2C(=O)O)c(O)c1` [2-[4-(Diethylamino)-2-hydroxybenzoyl]benzoic acid], the CC50 at 24 h is over 90 µM.

Turning to `Cc1cc(Nc2ccccc2C(=O)O)ccc1Cl` [2-[(4-Chloro-3-methylphenyl)amino]benzoic acid], the CC50 at 24 h was over 50 µM.

In the case of `C=C(C)C(=O)OCCOC(=O)CC(C)=O` [2-[Methacryloyloxy]ethyl acetoacetate], the CC50 at 24 h was over 90 µM.

The molecule `CN(C)CCOCCN(C)CCO` [2-[{2-[2-(Dimethylamino)ethoxy]ethyl}(methyl)amino]ethanol] registered a CC50 at 24 h of over 90 µM.

`C=CC(=C)CCCC(C)(C)OC(C)=O` [2-methyl-6-methylideneoct-7-en-2-yl acetate] had a CC50 at 24 h of over 90 µM.

`CCC(C)c1nccnc1OC` (stereo not drawn) [2-sec-Butyl-3-methoxypyrazine] yielded a CC50 at 24 h of over 90 µM.

For `CCC(C)C1CCCCC1=O` (stereo not drawn) [2-sec-Butylcyclohexanone], the CC50 at 24 h is over 90 µM.

`CCc1ccc(O)c(C(C)(C)C)c1` [2-tert-Butyl-4-ethylphenol] registered a CC50 at 24 h of 62.1 µM. That is a double-digit micromolar value.

Molecule `Cc1cccc(C(C)(C)C)c1O` [2-tert-Butyl-6-methylphenol] had a CC50 at 24 h of over 90 µM.

`CC(C)(C)C1CCCCC1O` (stereo not drawn) [2-tert-Butylcyclohexanol]: the CC50 at 24 h was over 90 µM.

Consider `CC(C)(C)C1CCCCC1=O` (stereo not drawn) [2-tert-Butylcyclohexanone], for which the CC50 at 24 h is over 90 µM.

In the case of `CC(=O)OC1CCCCC1C(C)(C)C` (stereo not drawn) [2-tert-Butylcyclohexyl acetate], the CC50 at 24 h was over 90 µM.

With `CC(C)(C)c1ccccc1O` [2-tert-Butylphenol], the CC50 at 24 h was over 90 µM.

The molecule `CN(C)CCN(C)CCO` [2-{[2-(Dimethylamino)ethyl](methyl)amino}ethanol] displayed a cytotoxic concentration (CC50) at 24 h of over 90 µM.

For the molecule `F/C(COc1ccc2c(c1)[nH]c1ccccc12)=C1/CN2CCC1CC2` [2-{[(2E)-2-(1-Azabicyclo[2.2.2]oct-3-ylidene)-2-fluoroethyl]oxy}-9H-carbazole], the midpoint of cytotoxicity, the CC50 at 24 h, lay at 7.59 µM. In other words, the single-digit micromolar range.

Regarding `Cc1cn([C@H]2C[C@H](N=[N+]=[N-])[C@@H](CO)O2)c(=O)[nH]c1=O` [3'-Azido-3'-deoxythymidine], the CC50 at 24 h is over 90 µM.

Take `Nc1ccc(-c2ccc(N)c(N)c2)cc1N` [3,3',4,4'-Tetraaminobiphenyl tetrahydrochloride]: the CC50 at 24 h turned out to be 64.7 µM.

Molecule `Cc1cc(-c2cc(C)c(N)c(C)c2)cc(C)c1N` [3,3',5,5'-Tetramethylbenzidine] displayed a CC50 at 24 h of over 90 µM.

Regarding `C[Si](C)(CCCN)O[Si](C)(C)CCCN` [3,3'-(1,1,3,3-Tetramethyldisiloxane-1,3-diyl)dipropan-1-amine], the CC50 at 24 h is over 90 µM.

With `O=C(O)/C=C/c1ccc(/C=C/C(=O)O)cc1` [3,3'-(1,4-Phenylene)bis-2-propenoic acid], the CC50 at 24 h is over 50 µM.

Consider `Cc1ccc(NC(=O)N(C)C)cc1NC(=O)N(C)C` [3,3'-(4-Methylbenzene-1,3-diyl)bis(1,1-dimethylurea)], for which the CC50 at 24 h is over 90 µM.

`N#CCCOCCOCCC#N` [3,3'-(Ethylenedioxy)dipropiononitrile] gave a CC50 at 24 h of over 90 µM.

For the molecule `CCN1/C(=C/C=C/c2sc3ccccc3[n+]2CC)Sc2ccccc21` [3,3'-Diethylthiacarbocyanine iodide], half-maximal cytotoxicity (CC50 at 24 h) was put at 1.67 µM.

Molecule `COc1cc(-c2ccc(N=C=O)c(OC)c2)ccc1N=C=O` [3,3'-Dimethoxybenzidine-4,4'-diisocyanate] showed a CC50 at 24 h of over 50 µM.

Molecule `Cc1cc(C(C)(C)c2ccc(O)c(C)c2)ccc1O` [3,3'-Dimethylbisphenol A] gave a CC50 at 24 h of over 90 µM.

`O=C(O)CCSSCCC(=O)O` [3,3'-Dithiodipropionic acid] gave a CC50 at 24 h of over 90 µM.

With `N#CCCNCCC#N` [3,3'-Iminobispropanenitrile], the CC50 at 24 h is over 100 µM.

Turning to `Nc1cccc(S(=O)(=O)c2cccc(N)c2)c1` [3,3'-Sulphonyldianiline], the 50% cytotoxic concentration (CC50) at 24 h is over 90 µM.

Molecule `O=C(O)CCSCCC(=O)O` [3,3'-Thiodipropionic acid] displayed a cytotoxic concentration (CC50) at 24 h of over 90 µM.

`N#CCCSCCC#N` [3,3'-Thiodipropionitrile] showed a CC50 at 24 h of over 90 µM.

With `O=S1(=O)CC(Cl)(Cl)C(Cl)(Cl)C1` [3,3,4,4-Tetrachlorotetrahydrothiophene 1,1-dioxide], the half-maximal cytotoxic concentration (CC50) at 24 h was 1.02 µM.

Molecule `CC1CC(O)CC(C)(C)C1` (stereo not drawn) [3,3,5-Trimethylcyclohexanol] yielded a CC50 at 24 h of over 90 µM.

The molecule `CC1CC(=O)CC(C)(C)C1` (stereo not drawn) [3,3,5-Trimethylcyclohexanone] returned a CC50 at 24 h of over 90 µM.

For `C=C(C)C(=O)OC1CC(C)CC(C)(C)C1` (stereo not drawn) [3,3,5-Trimethylcyclohexyl 2-methylprop-2-enoate], the CC50 at 24 h is over 90 µM.

`C=CC(C)(C)C` [3,3-Dimethyl-1-butene] had a CC50 at 24 h of over 90 µM.

The molecule `CC(C)(C)C(=O)C(=O)O` [3,3-Dimethyl-2-oxobutyric acid] registered a half-maximal cytotoxic concentration (CC50) at 24 h of over 90 µM.

With `CC(C)=CC(=O)O` [3,3-Dimethylacrylic acid], the CC50 at 24 h was over 90 µM.

The molecule `CC(=O)OCC=C(C)C` [3,3-Dimethylallyl acetate] had a CC50 at 24 h of over 60 µM.

In turn, `O=CC=C(c1ccccc1)c1ccccc1` [3,3-Diphenylacrylaldehyde] displayed a cytotoxic concentration (CC50) at 24 h of 42.2 µM. In other words, the double-digit micromolar range.

The molecule `Nc1ccc(Oc2ccc(N)c(N)c2)cc1` [3,4,4'-Triaminodiphenyl ether] gave a 50% cytotoxic concentration (CC50) at 24 h of 75.2 µM.

For `N#Cc1nc(Cl)c(Cl)c(Cl)c1Cl` [3,4,5,6-Tetrachloropyridine-2-carbonitrile], the CC50 at 24 h was found to be 3 µM.

`O=C(O)c1nc(Cl)c(Cl)c(Cl)c1Cl` [3,4,5,6-Tetrachloropyridine-2-carboxylic acid] had a CC50 at 24 h of over 90 µM.

Turning to `O=[N+]([O-])c1cc(Cl)c(Cl)c(Cl)c1` [3,4,5-Trichloronitrobenzene], the CC50 at 24 h was over 90 µM.

As to `Oc1cc(Cl)c(Cl)c(Cl)c1` [3,4,5-Trichlorophenol], the CC50 at 24 h amounted to 29.9 µM.

As to `COc1cc(CC(C)N)cc(OC)c1OC` (stereo not drawn) [3,4,5-Trimethoxyamphetamine hydrochloride], the CC50 at 24 h was over 100 µM.

Regarding `Nc1ccncc1N` [3,4-Diaminopyridine], the CC50 at 24 h was over 50 µM.

Turning to `O=C(O)c1snc(Cl)c1Cl` [3,4-Dichloro-5-isothiazolecarboxylic acid], the CC50 at 24 h is over 90 µM.

In turn, `Nc1ccc(Cl)c(Cl)c1` [3,4-Dichloroaniline] displayed a CC50 at 24 h of over 90 µM.

In turn, `O=Cc1ccc(Cl)c(Cl)c1` [3,4-Dichlorobenzaldehyde] had a half-maximal cytotoxic concentration (CC50) at 24 h of over 90 µM.

`O=C(O)c1ccc(Cl)c(Cl)c1` [3,4-Dichlorobenzoic acid] showed a CC50 at 24 h of over 90 µM.

For the molecule `O=C=Nc1ccc(Cl)c(Cl)c1` [3,4-Dichlorophenyl isocyanate], the CC50 at 24 h is over 90 µM.

Molecule `NC(=O)Nc1ccc(Cl)c(Cl)c1` [3,4-Dichlorophenylurea] displayed a CC50 at 24 h of over 90 µM.

Take `COC1CCC=CO1` (stereo not drawn) [3,4-Dihydro-2-methoxy-2H-pyran]: the CC50 at 24 h is over 90 µM.

`C1=COCCC1` [3,4-Dihydro-2H-pyran] gave a CC50 at 24 h of over 90 µM.

Molecule `O=C1CCc2ccccc2O1` [3,4-Dihydrocoumarin] had a CC50 at 24 h of over 90 µM.

`O=C(O)c1ccc(O)c(O)c1` [3,4-Dihydroxybenzoic acid]: the CC50 at 24 h is over 90 µM.

In turn, `Cc1ccc(N)cc1C` [3,4-Dimethylaniline] had a CC50 at 24 h of over 90 µM.

Consider `Cc1ccc(C=O)cc1C` [3,4-Dimethylbenzaldehyde], for which the CC50 at 24 h was over 90 µM.

In turn, `CCC(=O)C(=O)CC` [3,4-Hexanedione] registered a CC50 at 24 h of over 100 µM.

Take `N[C@@H](Cc1cc(I)c(Oc2ccc(O)c(I)c2)c(I)c1)C(=O)O` [3,5,3ʹ-Triiodothyronine]: the CC50 at 24 h was over 70 µM.

`CC(CCO)CC(C)(C)C` (stereo not drawn) [3,5,5-Trimethyl-1-hexanol] returned a CC50 at 24 h of over 90 µM.

The data set is the same for the next values; noted with them: rat, gh3-tre-luc cells, AC50 (uM) modified / 1000, Tox21_110001=Tox21_200060; viability, 1 nM T3 present, 24 h.
Take `CC(=O)C(C)(C)C` [3,3-Dimethyl-2-butanone]: the 50% cytotoxic concentration (CC50) at 24 h was over 100 µM.

The data set is the same for the next values; noted with them: rat, gh3-tre-luc cells, AC50 (uM) modified / 1000, Tox21_110001=Tox21_200675; viability, 1 nM T3 present, 24 h.
As for `Oc1ccc(Cl)c(Cl)c1` [3,4-Dichlorophenol], the CC50 at 24 h was over 90 µM.

Staying with this data set, now noted: rat, gh3-tre-luc cells, AC50 (uM) modified / 1000, Tox21_110001=Tox21_201292; viability, 1 nM T3 present, 24 h.
Molecule `Cc1cc(-c2ccc(N)c(C)c2)ccc1N` [3,3'-Dimethylbenzidine] came in with a CC50 at 24 h of over 90 µM.

Still in this data set, the particulars now being: rat, gh3-tre-luc cells, AC50 (uM) modified / 1000, Tox21_110001=Tox21_201325; viability, 1 nM T3 present, 24 h.
The molecule `O=c1[nH]c2ccccc2c(=O)o1` [2H-3,1-Benzoxazine-2,4(1H)-dione] came in with a CC50 at 24 h of over 90 µM.

Still in this data set, the particulars now being: rat, gh3-tre-luc cells, AC50 (uM) modified / 1000, Tox21_110001=Tox21_201361; viability, 1 nM T3 present, 24 h.
`C=CC(Cl)CCl` (stereo not drawn) [3,4-Dichloro-1-butene]: the cytotoxic concentration (CC50) at 24 h was over 90 µM.

Still in this data set, the particulars now being: rat, gh3-tre-luc cells, AC50 (uM) modified / 1000, Tox21_110001=Tox21_201613; viability, 1 nM T3 present, 24 h.
For the molecule `O=[N+]([O-])c1ccc(Cl)c(Cl)c1` [3,4-Dichloronitrobenzene], the CC50 at 24 h was over 90 µM.

The same data set, now with this note: rat, gh3-tre-luc cells, AC50 (uM) modified / 1000, Tox21_110001=Tox21_201755; viability, 1 nM T3 present, 24 h.
On to `Cc1cccc(N=Nc2ccc(N(C)C)cc2)c1` [3'-Methyl-4-dimethylaminoazobenzene], for which the midpoint of cytotoxicity, the CC50 at 24 h, lay at 72.8 µM.

The data set is the same for the next values; noted with them: rat, gh3-tre-luc cells, AC50 (uM) modified / 1000, Tox21_110001=Tox21_201906; viability, 1 nM T3 present, 24 h.
For the molecule `Nc1ccc(-c2ccc(N)c(Cl)c2)cc1Cl` [3,3'-Dichlorobenzidine dihydrochloride], the CC50 at 24 h was determined as 76.5 µM.

Still in this data set, the particulars now being: rat, gh3-tre-luc cells, AC50 (uM) modified / 1000, Tox21_110001=Tox21_202224; viability, 1 nM T3 present, 24 h.
Molecule `Nc1ccc(-c2ccc(N)c(Cl)c2)cc1Cl` [3,3'-Dichlorobenzidine] had a CC50 at 24 h of 26.1 µM.

Staying with this data set, now noted: rat, gh3-tre-luc cells, AC50 (uM) modified / 1000, Tox21_110001=Tox21_302894; viability, 1 nM T3 present, 24 h.
The molecule `Nc1ccc(-c2ccc(N)c(Cl)c2)cc1Cl` [3,3'-Dichlorobenzidine dihydrochloride] had a half-maximal cytotoxic concentration (CC50) at 24 h of 20.3 µM.

The same data set, now with this note: rat, gh3-tre-luc cells, AC50 (uM) modified / 1000, Tox21_110001=Tox21_303022; viability, 1 nM T3 present, 24 h.
Consider `Cc1cccc(N=Nc2ccc(N(C)C)cc2)c1` [3'-Methyl-4-dimethylaminoazobenzene], for which the CC50 at 24 h is over 90 µM.

In general, CC50 refers to the concentration giving 50% cytotoxicity.

The record behind these values is paper PMC6792352, “Limited Chemical Structural Diversity Found to Modulate Thyroid Hormone Receptor in the Tox21 Chemical Library” (Environmental Health Perspectives, 2019).
